{
  "source": "paper PMC4192545",
  "about": "“Suramin Inhibits Hsp104 ATPase and Disaggregase Activity” (PLoS ONE, 2014)",
  "key": {"[1]": {"molecular_target": "T1, Hsp104 with Hsp70 and Hsp40 (Saccharomyces cerevisiae, UniProt P31539)", "T1 construct": "host or cells: E. coli BL21-DE3 RIL (Hsp104)", "assay": "Luciferase reactivation with Hsp70, Hsp40 and Hsp104 plus ATP", "assay_type": "biochemical", "details": "for Normalized Luciferase Refolding Activity: Figure 3D, 70/40/104 (Hsp70 1 µM, Hsp40 1 µM, ATP)", "method": "(§1) Luciferase reactivation was performed as described, [37]. To assemble aggregates, firefly luciferase (50 µM) in luciferase refolding buffer (LRB, 25 mM HEPES-KOH, 7.4, 150 mM KAOc, 10 mM MgAOc, 10 mM DTT) with 6 M urea was incubated at 30°C for 20 min. Luciferase was then rapidly diluted 100-fold into LRB, divided into 100 µL aliquots, snap frozen in liquid N2, and stored at −80°C. For reactivation assays, aggregated luciferase (50 nM) was incubated with Hsp104 (1 µM hexamer), plus 2.6 mM ATPγS, 2.6 mM ATP and an ATP regeneration system (1 mM creatine phosphate, 0.25 µM creatine kinase (Roche Applied Science)) for 90 minutes at 25°C. Luciferase assay system was purchased from Promega. Luciferase activity was assessed by luminescence measured on a Safire^2 microplate reader (Tecan, Männedorf, Switzerland). The half maximal inhibitory concentration (IC50) was calculating by fitting luciferase-refolding data at different Suramin concentrations with Prism (GraphPad Software, Inc., La Jolla, CA).\n(A) Urea-denatured firefly luciferase aggregates were incubated for 90 min at 25°C with Hsp104 (1 µM hexamer) plus 1∶1 mixtures of ATP and ATPγS and varying concentrations of GdmCl. Luciferase reactivation was then determined and converted to % WT disaggregase activity in the presence of ATPγS: ATP. Values represent mean ±S.D. (n = 3–6). (B) Reactions were performed as in (A) except varying concentrations of Suramin were used. Values represent mean ±S.D. (n = 6–10). (C) Half maximal inhibitory concentration (IC50) for Suramin-mediated inhibition of Hsp104. IC50 was calculating by fitting luciferase-refolding data at different Suramin concentrations. (D) Reactions were performed as in (A) except that 1∶1 mixtures of ATP and ATPγS were replaced with Hsp70 (1 µM) and Hsp40 (1 µM) plus ATP. The Hsp104 alone condition (yellow bars) was carried out with 1∶1 mixtures of ATP and ATPγS as in (A). Each condition is normalized to the refolding activity in each corresponding condition in the absence of inhibitor."}, "Hsp104": {"molecular_target": "T2, Hsp104 (Saccharomyces cerevisiae, UniProt P31539)", "T2 construct": "made in house; host or cells: E. coli BL21-DE3 RIL", "assay": "Gel filtration of Hsp104 (hexamerization)", "design": "species or system yeast", "details": "Suramin 100 µM, with or without ATP 1 mM", "method": "Hsp104 was diluted into ATPase buffer with or without Suramin (100 µM) in the presence or absence of ATP (1 mM). The Hsp104 concentration was adjusted to 120 µM monomer and 20 µL of sample were fractionated by a Superdex 200 10/300 column (GE Healthcare Life Sciences, Piscataway, NJ) at room temperature and at a flow rate of 0.5 mL per minute in line with an Optilab T-rEX Refractive Interferometer (Wyatt Technologies, Santa Barbara, CA). Molecular weight markers were purchased from Bio-Rad Laboratories (Hercules, CA)."}, "Hsp104^A503V [2]": {"molecular_target": "T3, Hsp104^A503V (Saccharomyces cerevisiae, UniProt P31539, A503V)", "T3 construct": "made in house; host or cells: E. coli BL21-DE3 RIL", "T3 sequence (P31539 whole entry A503V)": "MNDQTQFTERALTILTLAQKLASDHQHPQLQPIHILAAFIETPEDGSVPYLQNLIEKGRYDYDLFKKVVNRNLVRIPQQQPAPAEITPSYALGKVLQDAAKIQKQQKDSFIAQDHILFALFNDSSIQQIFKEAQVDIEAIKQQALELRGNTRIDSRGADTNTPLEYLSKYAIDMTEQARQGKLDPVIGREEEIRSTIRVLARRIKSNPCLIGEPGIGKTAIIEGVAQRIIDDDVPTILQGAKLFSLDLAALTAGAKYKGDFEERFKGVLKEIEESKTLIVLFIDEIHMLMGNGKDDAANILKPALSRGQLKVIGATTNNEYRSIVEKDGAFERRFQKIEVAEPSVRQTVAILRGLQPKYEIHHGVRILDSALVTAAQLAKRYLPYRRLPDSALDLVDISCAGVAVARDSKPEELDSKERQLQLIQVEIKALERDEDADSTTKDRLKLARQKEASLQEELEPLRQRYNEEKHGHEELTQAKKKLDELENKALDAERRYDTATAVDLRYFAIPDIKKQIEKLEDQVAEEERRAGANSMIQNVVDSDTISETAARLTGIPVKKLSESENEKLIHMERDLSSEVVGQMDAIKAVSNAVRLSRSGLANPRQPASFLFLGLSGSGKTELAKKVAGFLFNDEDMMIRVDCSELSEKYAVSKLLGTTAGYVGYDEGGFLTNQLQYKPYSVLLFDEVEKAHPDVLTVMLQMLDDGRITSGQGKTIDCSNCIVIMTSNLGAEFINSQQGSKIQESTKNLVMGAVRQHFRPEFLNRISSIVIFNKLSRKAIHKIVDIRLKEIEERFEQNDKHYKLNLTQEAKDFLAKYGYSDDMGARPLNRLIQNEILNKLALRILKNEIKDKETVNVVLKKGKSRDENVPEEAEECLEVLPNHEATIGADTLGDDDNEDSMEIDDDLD", "assay": "ATPase assay, Hsp104^A503V", "assay_type": "biochemical, yeast", "method": "(§2) Wild-type or mutant Hsp104 (0.25 µM monomer) in ATPase buffer (20 mM HEPES-KOH pH 7.4, 20 mM NaCl and 10 mM MgCl2) was incubated for 60 or 10 min at 25°C in the presence of ATP (1 mM) as noted. ATPase activity was assessed by the release of inorganic phosphate determined by using a malachite green phosphate detection kit (Innova).\n(§3) Figure 7 Hsp104 variants respond differently to Suramin than Hsp104^WT. (A) Hsp104 variants (0.25 µM monomer) were incubated for 10 min with ATP (1 mM) and varying concentrations of Suramin. The amount of Pi produced was measured by absorbance at 635 nm. Absorbance values were normalized to the absorbance produced by each Hsp104 variant in the absence of inhibitor. Values represent mean ±S.D. (n = 6). (B) Urea-denatured firefly luciferase aggregates were incubated for 90 min at 25°C with Hsp104 variants (1 µM hexamer) plus 1∶1 mixtures of ATP and ATPγS (or ATP alone) and varying concentrations of Suramin. Luciferase reactivation was then determined and normalized to untreated disaggregase activity for each variant in the presence of ATPγS: ATP (or ATP alone). 1∶1 mixtures of ATP and ATPγS were used for Hsp104^WT and Hsp104^T317A, while ATP alone was used for Hsp104^A503V and Hsp104^N728A. Values represent mean ±S.D. (n = 6–12)."}, "Hsp104^A503V [3]": {"molecular_target": "T3, Hsp104^A503V", "assay": "biochemical", "assay_type": "biochemical, yeast", "method": "as §1\nas §3, with “(A)” for “Figure 7 Hsp104 variants respond differently to Suramin than Hsp104^WT. (A)”"}, "Hsp104^N728A": {"molecular_target": "T4, Hsp104^N728A (Saccharomyces cerevisiae, UniProt P31539, N728A)", "T4 construct": "made in house; host or cells: E. coli BL21-DE3 RIL", "T4 sequence (P31539 whole entry N728A)": "as the sequence (P31539 whole entry A503V) above, with V503A, N728A counted along it", "assay": "biochemical", "assay_type": "biochemical, yeast", "details": "for Hsp104^N728A refolding activity: ATP alone", "method": "as §1\nas §3, with “(A)” for “Figure 7 Hsp104 variants respond differently to Suramin than Hsp104^WT. (A)”"}, "Hsp104^T317A [4]": {"molecular_target": "T5, Hsp104^T317A (Saccharomyces cerevisiae, UniProt P31539, T317A)", "T5 construct": "made in house; host or cells: E. coli BL21-DE3 RIL", "T5 sequence (P31539 whole entry T317A)": "as the sequence (P31539 whole entry A503V) above, with T317A, V503A counted along it", "assay": "ATPase assay, Hsp104^T317A", "assay_type": "biochemical, yeast", "details": "read-out: Hsp104^T317A ATPase activity relative to uninhibited protein", "method": "as §2, §3"}, "Hsp104^T317A [5]": {"molecular_target": "T5, Hsp104^T317A", "assay": "Luciferase reactivation, Hsp104^T317A", "assay_type": "biochemical, yeast", "details": "ATP:ATPγS 1:1", "method": "as §1, §3"}, "Δpdr5 yeast": {"system": "Δpdr5 yeast", "assay": "[PSI+] propagation in Δpdr5 yeast", "assay_type": "cell-based", "details": "Suramin 100 µM, data not shown"}},
  "note": "pIC50: −log10 of the molar value.",
  "data": [
    {"smiles": "Cc1ccc(C(=O)Nc2ccc(S(=O)(=O)O)c3cc(S(=O)(=O)O)cc(S(=O)(=O)O)c23)cc1NC(=O)c1cccc(NC(=O)Nc2cccc(C(=O)Nc3cc(C(=O)Nc4ccc(S(=O)(=O)O)c5cc(S(=O)(=O)O)cc(S(=O)(=O)O)c45)ccc3C)c2)c1", "note": "[Suramin]", "values": [
      {"measurement": "Normalized Luciferase Refolding Activity", "setting": "[1]; Suramin 25 µM", "value": 0.12},
      {"measurement": "Normalized Luciferase Refolding Activity", "setting": "[1]; Suramin 100 µM", "value": 0.03},
      {"measurement": "Rescue of inhibition by Hsp70 and Hsp40", "setting": "[1]; disaggregation reaction with Hsp70 and Hsp40", "value": "not rescued by inclusion of Hsp70 and Hsp40"},
      {"measurement": "Effect on Hsp104 hexamerization (gel filtration elution profile)", "setting": "Hsp104", "value": "does not interfere with hexamerization"},
      {"measurement": "Inhibitor concentration of maximal ATPase inhibition", "setting": "Hsp104^A503V [2]; Hsp104^A503V", "value": 25, "unit": "µM"},
      {"measurement": "activity at 25 µM", "setting": "Hsp104^A503V [2]; read-out: Hsp104^A503V ATPase activity relative to uninhibited", "value": 18, "unit": "%"},
      {"measurement": "pIC50", "setting": "Hsp104^A503V [3]", "value": "~6.21"},
      {"measurement": "Hsp104^A503V refolding activity", "setting": "Hsp104^A503V [3]; Suramin 1 µM, ATP alone", "value": "less than 50%"},
      {"measurement": "pIC50", "setting": "Hsp104^N728A", "value": "~4.03"},
      {"measurement": "Hsp104^N728A refolding activity", "setting": "Hsp104^N728A; Suramin 1 µM", "value": "~100", "unit": "%"},
      {"measurement": "Hsp104^N728A refolding activity", "setting": "Hsp104^N728A; Suramin 50 µM", "value": "~36", "unit": "%"},
      {"measurement": "activity at 100 µM", "setting": "Hsp104^T317A [4]", "value": "~65", "unit": "%"},
      {"measurement": "Hsp104^T317A refolding activity", "setting": "Hsp104^T317A [5]; Suramin 1 µM", "value": "approximately 75%"},
      {"measurement": "Hsp104^T317A refolding activity", "setting": "Hsp104^T317A [5]; Suramin 50 µM", "value": "approximately 8%"},
      {"measurement": "pIC50", "setting": "Hsp104^T317A [5]; based on refolding data", "value": "~4.69"},
      {"measurement": "Effect on [PSI+] propagation", "setting": "Δpdr5 yeast", "value": "impaired neither"}
    ]}
  ]
}
